Assay results as given in US20040175691A1, “Use of the KCNQ2 and KCNQ3 genes for the discovery of agents useful in the treatment of neurological disorders” (priority 1998, published 2004).

Legend:
[1] = tested on: phasic sympathetic neurons; assay: Firing properties of phasic sympathetic neurons from the SCG; format: cell-based, rat; settings: 10 μM
Description: (§1) Method: Recordings of the M-current in sympathetic neurons in intact ganglia were performed at room temperature as described previously (Wang and McKinnon, 1995). The standard extracellular recording solution was: NaCl (133 mM, KCl (4.7 mM), NaH2PO4 (1.3 mM), NaHCO3 (16.3 mM), CaCl2 (2 mM), MgCl2 (1.2 mM) and glucose (1.4 g/liter), bubbled with 95% O2-5% CO2 to give pH 7.2-7.4.

M-current = biological target: T1, M-current (Rattus norvegicus, UniProt O88943+O88944); assay: Blockade of native M-current in SCG neurons (voltage clamp, intact ganglia); format: cell-based; settings: native M-current, SCG neurons; mean±s.e.m.
T1 construct: from tissue
Description: as §1
A. Blockade of M-current in SCG neurons by XE991. Holding potential was −30 mV and step potential was −50 mV for 1 second. The shift in holding current following drug application is due to the inhibition of M-current activated at the holding potential.
Maximal block of native M-current was 93±2%. Data points are averages and error bars represent s.e.m.

KCNQ2 = KCNQ2 (Homo sapiens, UniProt O43526, DEL417-446); assay: Perforated-patch voltage clamp of HEK 293E cells stably expressing hKCNQ2; format: cell-based; design: Full-length hKCNQ2 cDNAs were amplified from adult human brain cDNA; expressed in transfected cells; host or cells: 293 EBNA (HEK 293E) cells, episomal plasmid pm3AR-hKCNQ2-1, hygromycin B selection; settings: FIG. 5 (0.3 uM)
Description: To determine whether the hygromycin B resistant HEK 293E cells express functional hKCNQ2 channels, the presence of potassium currents was evaluated using the perforated-patch voltage-clamp technique. Briefly, cells growing on plastic Petri dishes or poly-D-lysine-coated glass coverslips in DMEM (with 10% FBS and 250 ug/ml hygromycin B) at 37° C. and 5% CO2 were removed from the incubator and allowed to reach room temperature. Growth medium was replaced with a bathing solution containing, in mM: 140 NaCl, 3 KC1, 2.5 CaCl2, 1 MgCl2, 10 HEPES, 10 dextrose, pH adjusted to 7.2-7.4 with NaOH and osmolarity adjusted to 305-310 mosm with water. […]
Stock solution(s) of test compound(s) was (were) prepared immediately before use. […] Generally, the stock solution is about 0.1 mM to about 100 mM in DMSO and the aliquot is about 5 to about 100 uL, but it is understood that the concentration and volumes are not limited to these ranges for one skilled in the art can readily determine the appropriate concentrations and volumes dependening on the activity of the compound in the assay and the sensitivity of detection. […]

rat hippocampal neurons = rat hippocampal neurons (Lampe & Brown 1991); cited from earlier work
KQT1 = biological target: T2, KQT1 (Homo sapiens, UniProt P51787); assay: Blockade of cloned KQT1 channel in oocytes; format: cell-based
T2 construct: expressed in transfected cells; host or cells: oocytes (Xenopus)

hKCNQ2 potassium channel = biological target: T3, hKCNQ2 potassium channel (Homo sapiens, UniProt O43526, DEL417-446); assay: Membrane potential-evoked fluorescence (FLIPR, DiBAC) in HEK 293E cells stably expressing hKCNQ2; format: cell-based; settings: DiBAC-loaded HEK 293E hKCNQ2 cells, FIG. 6
T3 construct: Full-length hKCNQ2 cDNAs were amplified from adult human brain cDNA; expressed in transfected cells; host or cells: 293 EBNA (HEK 293E) cells, episomal plasmid pm3AR-hKCNQ2-1, hygromycin B selection
Description: The ability of KCNQ2 modulators to alter membrane potential was assessed using a fluorescence imaging plate reader (FLIPR). Cultured HEK 293E cells expressing hKCNQ2 channels are plated on poly-D-lysine-coated 96-well Costar microplates (#3603) at 300,000-750,000 cells/ml and allowed to reach confluence in DMEM (with 10% FBS and 250 ug/ml hygromycin B) at 37° C. and 5% CO2. After reaching confluence, growth medium is removed, replaced with a standard Hank's balanced salt solution containing 5 uM dibac(4)3, bis-oxonol (Molecular Probes # B-438) at 37° C. The cell plate is then placed in the recording chamber (equilibrated to 37° C.) of a fluorescence imaging plate reader (FLIPR; Molecular Devices) along with two drug plates (one containing standard Hank's balanced salt solution+dibac and the other containing standard Hank's balanced salt solution+dibac+test compound at various experimental concentrations).
These cells were loaded with the voltage-sensitive fluorescent dye, DiBAC, that distributes across cell membranes in a voltage-dependent manner. As cells depolarize (become more positive inside), more dye enters the cells and an increase in fluorescence occurs.
In FIG. 7, the relative effects of several M-current modulators on the flourescence of HEK 293E cells stably expressing the hKCNQ2 potassium channel is shown. These cells were loaded with the voltage-sensitive fluorescent dye, DiBAC, that distributes across cell membranes in a voltage-dependent manner. As cells depolarize, more dye enters the cells and an increase in fluorescence occurs. Conversely, as cells hyperpolarize (become more negative inside), more dye leaves the cells and a decrease in fluorescence occurs.

T2 sequence (P51787 whole entry): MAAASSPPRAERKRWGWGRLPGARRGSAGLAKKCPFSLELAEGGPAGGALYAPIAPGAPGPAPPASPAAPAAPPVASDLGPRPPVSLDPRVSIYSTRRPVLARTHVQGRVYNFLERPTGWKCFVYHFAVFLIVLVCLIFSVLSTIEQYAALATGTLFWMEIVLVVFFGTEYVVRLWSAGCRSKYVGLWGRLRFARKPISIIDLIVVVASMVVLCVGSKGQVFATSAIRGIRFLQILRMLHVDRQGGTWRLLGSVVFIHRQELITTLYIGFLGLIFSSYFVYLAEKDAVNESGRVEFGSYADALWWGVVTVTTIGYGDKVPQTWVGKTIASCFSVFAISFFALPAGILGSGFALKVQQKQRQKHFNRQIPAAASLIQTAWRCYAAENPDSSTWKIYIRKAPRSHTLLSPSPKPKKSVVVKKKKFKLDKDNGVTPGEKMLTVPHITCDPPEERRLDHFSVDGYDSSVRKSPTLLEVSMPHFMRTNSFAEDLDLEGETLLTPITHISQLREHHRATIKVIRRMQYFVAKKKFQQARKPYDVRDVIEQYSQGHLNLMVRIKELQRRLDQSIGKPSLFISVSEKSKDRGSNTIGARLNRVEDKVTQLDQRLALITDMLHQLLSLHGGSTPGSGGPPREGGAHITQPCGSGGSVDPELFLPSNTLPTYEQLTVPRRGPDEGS

Structure (SMILES)	Effect on firing properties of phasic neurons [1]	IC50 (M-current)	Block of hKCNQ2 current (KCNQ2)	Spike frequency adaptation (rat hippocampal neurons)	IC50 (KQT1)	Change in fluorescence (membrane depolarization) (hKCNQ2 potassium channel)
O=C1c2ccccc2C(Cc2ccncc2)(Cc2ccncc2)c2ccccc21 [XE991, 10,10-bis(4-pyridinylmethyl)-9(10H)-anthracenone]	converts the firing properties from phasic to tonic	0.98 ± 0.15 µM	reversibly blocks hKCNQ2			
O=C1N(c2ccccc2)c2ccccc2C1(Cc1ccncc1)Cc1ccncc1 [Linopirdine, 3,3-bis(4-pyridinylmethyl)-1-phenylindolin-2-one]				reduced spike frequency adaptation	8.9 ± 0.9 µM	time- and concentration-dependent increase in flourescence
